Data taken from patent US20220361555A1, “INHIBITION OF UNDESIRED SENSORY EFFECTS BY THE COMPOUND CAMPHOR” (priority 2010, published 2022).
Where “and” joins values, the source holds several entries; their conditions need not be identical. Identical values can stand only once. Entries after “also recorded” stand apart in the source; their conditions may differ.

Experiments:
[1] = system: nerve fibers; conditions: isolated mouse trachea model, Kichko et al.; cited from earlier work
[2] = system: tongues of human volunteers; experiment: Pre-treatment with camphor (ethanol/water solution on a strip) on sensory irritation from nicotine; format: in vivo; conditions: 25, 50 or 100 ppm camphor on a strip for 30 seconds, then 0.1-0.3% nicotine; immediately and 30 seconds after initial exposure
Excerpt: FIGS. 1 and 2 show the results of a study on the effect of pre-treatment with camphor on sensory irritation from nicotine. Camphor was applied to tongues of human volunteers prior to application of a nicotine solution. Randomized sides of tongues were selected for application of 20 microliters of 0 ppm, 25 ppm, 50 ppm, or 100 ppm of camphor from an ethanol/water solution on a strip (thus, about […], respectively) for 30 seconds. Then, the subjects sipped, rinsed, then spit 0.1%, 0.2%, or 0.3% of a nicotine solution for a 5 second application. Participants were then asked which side of the tongue has the strongest burning sensation. Responses were collected both immediately (within 5 seconds) (FIG. 1) and after 30 seconds (FIG. 2). Controls received no camphor, and a baseline was established at zero camphor.

[3] = system: tongues of 18 participants; experiment: Camphor in NEOBEE oil carrier pretreatment, burning sensation from nicotine strips; format: in vivo, human; design: Difference from control (burning from nicotine): scale not given here
Experimental: Camphor pretreatment was performed using two taste strips applied bilaterally (blinded, randomized) on the tongues of 18 participants. Test strips had 250 microliters of NEOBEE oil carrier with camphor concentrations of C ranging from 300 ppm to 1800 ppm. Control strips contained 250 microliters of carrier only (NEOBEE Oil). The pretreatment time was about 30 seconds. Participants then removed the taste strips and nicotine strips were placed in treated area. The nicotine was provided in an amount of 730 micrograms in 50 microliters for about 30 seconds. Each nicotine strip was then removed, followed by sensory evaluation of burning immediately, at 30 seconds, and 2 minutes. For sensory evaluation, 2 AFC and sensory irritation intensity ratings were generated.
A repeated measures analysis of variance (ANOVA) model was applied to analyze the data. The model includes terms for study participant, study time and concentration of camphor (see the Table 1). The SAS procedure “PROC MIXED” was used. The p value was for the comparison between each concentration with the control. The chi squared test was used for calculating significance for forced choice values.

[4] = system: mouth of subjects using oral tobacco; experiment: Snus pouches with camphor, perceived burning in the mouth (2AFC); format: in vivo, human; conditions: snus pouch
Experimental: A further study was conducted to determine if camphor affected perceived burning in the mouth of subjects using oral tobacco. Participants were given two snus pouch samples to use simultaneously, one in each side of the mouth. One sample was a control pouch with no camphor added and the other contained various concentrations of camphor (2.3, 6, 12, 23, 46, and 69 nanograms, corresponding to […], based on tobacco weight, respectively).
The hand-made test samples were constructed using unflavored tobacco (12% oven volatiles) to prevent any possible interference of the flavor system with the objective of the study. In preparing the pouches, the camphor was dissolved in 95% ethanol, with the control pouches receiving the ethanol only. […]
After two (2) minutes, five (5) minutes, and ten (10) minutes of using the samples, participants were asked to indicate which side of the mouth was burning more. Responses were recorded on paper by the experimenter. […] Following each evaluation, participants were asked to give details regarding where the burning was felt and to provide any open-ended comments regarding their experience, which were recorded on paper by the experimenter. Participants repeated the sensory evaluation procedures an additional six (6) times, with a maximum of two (2) pairs being evaluated each day.

[5] = Sensory effect of camphor in mineral oil in smokeless tobacco products; format: in vivo
[6] = system: acetylcholine receptors; conditions: by inhibiting acetylcholine receptors, Park et al.; cited from earlier work
[7] = system: participants (mouth); experiment: Determination of irritation threshold of camphor solution in the mouth; format: in vivo, human; design: key to irritation perceived: Y: the participant felt irritation at the indicated concentration; N: no irritation was felt; conditions: for irritation perceived: 2 ml solution swished 10 seconds
Experimental: A further study was conducted to determine the threshold at which camphor itself would cause sensory irritation.
Each test used two milliliters (2 ml) of a camphor solution. The camphor was dissolved in ethanol and further diluted in water. Participants received sequentially increasing concentration of camphor. Nine participants received samples including food grade racemic camphor, with concentrations of 200, 300, 400, […] 1000, 2000, 4000, 6000 ppm (corresponding to about […] per sample, respectively).
Participants wore nose clips during evaluation. Each participant sipped the sample, swished it in the mouth for 10 seconds, then spat it out. Each participant then indicated whether irritation was perceived. Between evaluations of each sample, participants rinsed with water and waited for one minute.
The left-most column indicates the participant number of each individual participant.

**Q.** With `CC12CCC(CC1=O)C2(C)C` (racemic) [camphor] as the compound, how does the “activation of nerve fibers induced by nicotine” value [1] read?
**A.** effectively inhibit activation of nerve fibers

**Q.** And the “perceived burning from nicotine after pre-treatment with camphor” value [2]?
**A.** significantly reduced perceived burning from nicotine

**Q.** What about the “sensory irritation from nicotine versus control” value ([3]; 600 ppm, 900 ppm and 1200 ppm camphor, immediately, at 30 seconds and at 120 seconds after nicotine) of the same compound?
**A.** significant reduction in sensory irritation from nicotine

**Q.** What about the “Difference from control (burning from nicotine)” value (“Difference from control” below) ([3]; study time 0 sec, camphor 300 ppm in NEOBEE oil) of the same compound?
**A.** 4.31

**Q.** And the “Difference from control” value ([3]; study time 0 sec, camphor 600 ppm in NEOBEE oil)?
**A.** −24.03

**Q.** What about the “Difference from control” value ([3]; study time 0 sec, camphor 900 ppm in NEOBEE oil) of the same compound?
**A.** −22.64

**Q.** And the “Difference from control” value ([3]; study time 0 sec, camphor 1200 ppm in NEOBEE oil)?
**A.** −19.99

**Q.** What about the “Difference from control” value ([3]; study time 0 sec, camphor 1500 ppm in NEOBEE oil) of the same compound?
**A.** −8.62

**Q.** And the “Difference from control” value ([3]; study time 0 sec, camphor 1800 ppm in NEOBEE oil)?
**A.** 7.29

**Q.** What about the “Difference from control” value ([3]; study time 30 sec, camphor 300 ppm in NEOBEE oil) of the same compound?
**A.** −1.67

**Q.** And the “Difference from control” value ([3]; study time 30 sec, camphor 600 ppm in NEOBEE oil)?
**A.** −18.00

**Q.** And the “Difference from control” value ([3]; study time 30 sec, camphor 900 ppm in NEOBEE oil)?
**A.** −19.72

**Q.** And the “Difference from control” value ([3]; study time 30 sec, camphor 1200 ppm in NEOBEE oil)?
**A.** −14.30

**Q.** What about the “Difference from control” value ([3]; study time 30 sec, camphor 1500 ppm in NEOBEE oil) of the same compound?
**A.** −11.11

**Q.** What about the “Difference from control” value ([3]; study time 30 sec, camphor 1800 ppm in NEOBEE oil) of the same compound?
**A.** 5.25

**Q.** What about the “Difference from control” value ([3]; study time 120 sec, camphor 300 ppm in NEOBEE oil) of the same compound?
**A.** −2.12

**Q.** What about the “Difference from control” value ([3]; study time 120 sec, camphor 600 ppm in NEOBEE oil) of the same compound?
**A.** −13.80

**Q.** What about the “Difference from control” value ([3]; study time 120 sec, camphor 900 ppm in NEOBEE oil) of the same compound?
**A.** −17.69

**Q.** And the “Difference from control” value ([3]; study time 120 sec, camphor 1200 ppm in NEOBEE oil)?
**A.** −11.93

**Q.** And the “Difference from control” value ([3]; study time 120 sec, camphor 1500 ppm in NEOBEE oil)?
**A.** −2.38

**Q.** And the “Difference from control” value ([3]; study time 120 sec, camphor 1800 ppm in NEOBEE oil)?
**A.** 2.16

**Q.** And the “time at which the effect on oral burning was strongest” value ([4]; asked at 2, 5 and 10 minutes)?
**A.** 10 min

**Q.** What about the “quantity of camphor most effective in reducing oral burning” value ([4]; printed as corresponding to 50 ppm) of the same compound?
**A.** 12 nanogram

**Q.** And the “concentration of camphor that does not exhibit a sensory effect of its own (smell, taste, extensive cooling)” value [5]?
**A.** less than 1300 ppm

**Q.** What about the “norepinephrine release from adrenal gland cells” value [6] of the same compound?
**A.** inhibit norepinephrine release

**Q.** What about the irritation perceived ([7]; 200 ppm camphor, one line per participant) of the same compound?
**A.** Y (3×) and N (6×)

**Q.** What about the irritation perceived ([7]; 300 ppm camphor, one line per participant) of the same compound?
**A.** Y (3×) and N (6×)

**Q.** What about the irritation perceived ([7]; 400 ppm camphor, one line per participant) of the same compound?
**A.** Y (4×) and N (4×)

**Q.** What about the irritation perceived ([7]; 500 ppm camphor, one line per participant) of the same compound?
**A.** N (3×) and Y (3×)

**Q.** And the irritation perceived ([7]; 1000 ppm camphor, one line per participant)?
**A.** N and Y (2×)

**Q.** And the irritation perceived ([7]; 2000 ppm camphor, one line per participant)?
**A.** Y

**Q.** And the irritation perceived ([7]; 4000 ppm camphor, one line per participant)?
**A.** Y

**Q.** What about the irritation perceived ([7]; 6000 ppm camphor, one line per participant) of the same compound?
**A.** Y

**Q.** What about the “mean threshold for producing irritation” value ([7]; n=9) of the same compound?
**A.** 655 ppm

**Q.** What about the “Notes (sensation described by participant)” value ([7]; one line per participant, first line given) of the same compound?
**A.** Very slight tingling at 200,; also recorded: Felt slight tingling at 2000,; also recorded: Felt some tingling at 1000,; also recorded: Tingling at 300, tingling no; also recorded: Slight tingling and burning at; also recorded: No Burning, slight tingling on; also recorded: Some burning at 200, stronger; also recorded: Felt slight tingling at 500,; also recorded: Some burning and stinging at
